Patent US10752587B2, “Homobispiperidinyl derivatives as liver X receptor beta agonists, compositions and their use” (Merck Sharp & Dohme Corp., priority 2015, dated 2020)

How the values were obtained:
[1] = molecular target: T1, glutathione-S-transferase (GST) tagged LXRbeta LBD (ligand binding domain) (Homo sapiens, UniProt P55055); assay: LanthaScreen TR-FRET Liver X Receptor Coactivator Assay, co-activator recruitment to LXRbeta LBD; format: biochemical; conditions: for Emax / LXR beta Activity @ max dose (%): efficacy at max dose, in relation to reference dual agonist T0901317; for Emax: read-out: LXR beta Activity @ max dose (%); for EC50: potency (Inflection Point, IP), co-activator recruitment to LXRbeta LBD, in relation to T0901317, read-out: LXR beta IP
T1 construct: purchased Invitrogen pv4658.pps
T1 sequence (P55055 222-460 limits assumed): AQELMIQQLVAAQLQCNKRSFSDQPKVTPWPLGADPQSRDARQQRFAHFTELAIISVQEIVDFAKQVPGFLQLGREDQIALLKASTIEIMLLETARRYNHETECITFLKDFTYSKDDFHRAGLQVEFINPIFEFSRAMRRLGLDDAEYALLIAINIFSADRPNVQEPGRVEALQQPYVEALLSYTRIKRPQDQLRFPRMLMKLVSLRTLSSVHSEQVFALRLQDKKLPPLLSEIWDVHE
Summary of the method: (§1)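 LXRα- or LXRβ-LBD protein was added to test compounds, then fluorescein-labelled coactivator peptide plus Tb-anti-GST antibody; after room-temperature incubation, TR-FRET was read. Inflection point (IP) and Emax were expressed relative to the dual agonist reference T0901317.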

[2] = molecular target: T2, glutathione-S-transferase (GST) tagged LXRalpha LBD (ligand binding domain) (Homo sapiens, UniProt Q13133); assay: LanthaScreen TR-FRET Liver X Receptor Coactivator Assay, co-activator recruitment to LXRalpha LBD; format: biochemical; conditions: for Emax: read-out: LXR alpha Activity @ max dose (%); for LXR alpha IP (nM) / EC50: potency (Inflection Point, IP), co-activator recruitment to LXRalpha LBD, in relation to T0901317; for EC50: read-out: LXR alpha IP
T2 construct: purchased Invitrogen pv4655
T2 sequence (Q13133 209-447 limits assumed): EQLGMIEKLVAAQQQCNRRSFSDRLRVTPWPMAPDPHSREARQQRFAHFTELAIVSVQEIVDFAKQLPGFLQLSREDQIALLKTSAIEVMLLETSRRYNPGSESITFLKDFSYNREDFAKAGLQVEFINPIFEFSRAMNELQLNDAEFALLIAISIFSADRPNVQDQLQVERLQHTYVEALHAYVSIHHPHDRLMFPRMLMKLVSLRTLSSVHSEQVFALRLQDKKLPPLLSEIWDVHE
Summary of the method: as §1

[3] = efficacy at max dose, in relation to reference dual agonist T0901317

Row | Emax [1] [%] | EC50 [1] [nM] | Emax [2, 3] [%] | LXR alpha IP (nM) [2] | EC50 [2] [nM] | LXR beta Activity @ max dose (%) [1] [%] | LXR alpha Activity @ max dose (%) [2, 3] [%] | SMILES
1 | 63 | 44 | 3 | NO IP | – | – | – | CC(C)Oc1cccc([C@@](O)(C(=O)N2CCC(CC3CCN(c4ccc(C(=O)N(C)C)cc4)CC3)CC2)C(F)(F)F)c1 [Example 2-135, N,N-dimethyl-4-{4-[(1-{(2R)-3,3,3-trifluoro-2-hydroxy-2-[3-(1-methylethoxy)phenyl]propanoyl}piperidin-4-yl)methyl]piperidin-1-yl}benzamide]
2 | 107 | 20 | 61 | – | 215 | – | – | CNC(=O)c1ccc(N2CCC(CC3CCN(C(=O)C(O)(c4cccc(C#N)c4)C(F)(F)F)CC3)CC2)nc1Cl (centres unmarked) [Example 7-144, 2-chloro-6-[4-({1-[2-(3-cyanophenyl)-3,3,3-trifluoro-2-hydroxypropanoyl]piperidin-4-yl}methyl)piperidin-1-yl]-N-methylpyridine-3-carboxamide]
3 | 33 | 26 | 12 | NO IP | – | – | – | CN(C)C(=O)c1ccc(N2CCC(CC3CCCN(C(=O)[C@](O)(c4ccccc4)C(F)(F)F)CC3)CC2)cc1Cl (stereo partly drawn) [Example 2-160, 2-chloro-N,N-dimethyl-4-[4-({1-[(2R)-3,3,3-trifluoro-2-hydroxy-2-phenyl-propanoyl]azepan-4-yl}methyl)piperidin-1-yl]benzamide]
4 | 98 | 7 | 20 | – | 243 | – | – | CNC(=O)c1ccc(N2CCC(CC3CCN(C(=O)[C@](O)(c4cc(F)cc(OC)c4)C(F)(F)F)CC3)CC2)cc1Cl [Example 7-118, 2-chloro-N-methyl-4-[4-({1-[(2R)-3,3,3-trifluoro-2-(3-fluoro-5-methoxyphenyl)-2-hydroxypropanoyl]piperidin-4-yl}methyl)piperidin-1-yl]benzamide]
5 | 50 | 12 | 13 | NO IP | – | – | – | CC(C)Oc1cccc(C(O)(C(=O)N2CCC(CC3CCN(c4ccc(C(=O)N(C)C)c(Cl)c4)CC3)CC2)C(F)(F)F)c1 (centres unmarked) [Example 2-82, 2-chloro-N,N-dimethyl-4-{4-[(1-{3,3,3-trifluoro-2-hydroxy-2-[3-(1-methyl-ethoxy)phenyl]propanoyl}piperidin-4-yl)methyl]piperidin-1-yl}benzamide]
6 | 80 | 19 | 24 | – | 461 | – | – | CN(C)C(=O)c1ncc(N2CCC(CC3CCN(C(=O)[C@](O)(c4ccccc4)C(F)(F)F)CC3)CC2)cc1Cl [Example 2-4, 3-chloro-N,N-dimethyl-5-[4-({1-[(2R)-3,3,3-trifluoro-2-hydroxy-2-phenylpropanoyl]piperidin-4-yl}methyl)piperidin-1-yl] pyridine-2-carboxamide]
7 | 67 | 136 | 1 | NO IP | – | – | – | CNC(=O)c1ccc(N2CCC(CC3CN(C(=O)[C@](O)(c4cccc(OC)c4)C(F)(F)F)C3)CC2)cc1Cl [Example 7-38, 2-chloro-N-methyl-4-[4-({1-[(2R)-3,3,3-trifluoro-2-hydroxy-2-(3-methoxyphenyl)propanoyl]azetidin-3-yl}methyl)piperidin-1-yl]benzamide]
8 | 44 | 8 | 0 | NO IP | – | – | – | CC(C)Oc1cccc([C@@](O)(C(=O)N2CCC(C)(CC3CCN(c4ccc(C(=O)N(C)C)c(Cl)c4)CC3)CC2)C(F)(F)F)c1 [Example 2-55, 2-chloro-N,N-dimethyl-4-{4-[(4-methyl-1-{(2R)-3,3,3-trifluoro-2-hydroxy-2-[3-(1-methyl-ethoxy)phenyl]propanoyl}piperidin-4-yl)methyl]piperidin-1-yl}benzamide]
9 | 118 | 84 | 43 | – | 836 | – | – | CN(C)C(=O)c1ccc(N2CCC(CC3CCN(C(=O)[C@](O)(c4ccccc4)C(F)(F)C(F)(F)F)CC3)CC2)cc1 [Example 2-140, N,N-dimethyl-4-[4-({1-[(2R)-3,3,4,4,4-pentafluoro-2-hydroxy-2-phenylbutanoyl]piperidin-4-yl}methyl)piperidin-1-yl]benzamide]
10 | 55 | 43 | 4 | NO IP | – | – | – | COc1cccc([C@@](O)(C(=O)N2CCC(CC3CCN(c4ccc(C(=O)N(C)C)cc4)CC3)CC2)C(F)(F)F)c1 [Example 2-124, N,N-dimethyl-4-[4-({1-[(2R)-3,3,3-trifluoro-2-hydroxy-2-(3-methoxy-phenyl)propanoyl]piperidin-4-yl}methyl)piperidin-1-yl]benzamide]
11 | 69 | 50 | 14 | NO IP | – | – | – | CN(C)C(=O)c1ccc(N2CCC(CC3CN(C(=O)C(O)(c4cccc(C(F)(F)F)c4)C(F)(F)F)C3)CC2)cc1Cl (centres unmarked) [Example 2-66, 2-chloro-N,N-dimethyl-4-{4-[(1-{3,3,3-trifluoro-2-hydroxy-2-[3-(trifluoromethyl)phenyl]propanoyl}azetidin-3-yl)methyl]piperidin-1-yl}benzamide]
12 | – | 7 | – | NO IP | – | 61 | 9 | COc1cccc([C@@](O)(C(=O)N2CCC(CC3CCN(c4ccc(C(=O)N(C)C)c(Cl)n4)CC3)CC2)C(F)(F)F)c1 [Example 7-74, 2-chloro-N,N-dimethyl-6-[4-({1-[(2R)-3,3,3-trifluoro-2-hydroxy-2-(3-methoxyphenyl)propanoyl]piperidin-4-yl}methyl)piperidin-1-yl] pyridine-3-carboxamide]
13 | – | 16 | – | NO IP | – | 90 | – | CNC(=O)c1ccc(N2CCC(CC3CCN(C(=O)C(O)(c4cccc(Cl)c4)C(F)(F)F)CC3)CC2)cc1Cl (centres unmarked) [Example 7-129, 2-chloro-4-[4-({1-[2-(3-chlorophenyl)-3,3,3-trifluoro-2-hydroxypropanoyl]piperidin-4-yl}methyl)piperidin-1-yl]-N-methylbenzamide]
14 | 62 | 8 | 30 | – | 246 | – | – | CN(Cc1ccon1)C(=O)c1ccc(N2CCC(CC3CCN(C(=O)[C@](O)(c4ccccc4)C(F)(F)F)CC3)CC2)cc1Cl [Example 4-10, 2-chloro-N-(isoxazol-3-ylmethyl)-N-methyl-4-[4-({1-[(2R)-3,3,3-trifluoro-2-hydroxy-2-phenylpropanoyl]piperidin-4-yl}methyl)piperidin-1-yl]benzamide]
15 | 58 | 23 | 20 | – | 199 | – | – | CN(C)C(=O)c1ccc(N2CCC(CC3CCN(C(=O)[C@](O)(c4cccc(OC(F)(F)F)c4)C(F)(F)F)CC3)CC2)cc1Cl [Example 2-91, 2-chloro-N,N-dimethyl-4-{4-[(1-{(2R)-3,3,3-trifluoro-2-hydroxy-2-[3-(trifluoro-methoxy)phenyl]propanoyl}piperidin-4-yl)methyl]piperidin-1-yl}benzamide]
16 | 80 | 11 | 19 | – | 274 | – | – | COc1cccc(C(O)(C(=O)N2CCC(CC3CCN(c4ccc(C(=O)N(C)C)c(Cl)n4)CC3)CC2)C(F)(F)C(F)(F)F)c1 (centres unmarked) [Example 7-58, 2-chloro-N,N-dimethyl-6-[4-({1-[3,3,4,4,4-pentafluoro-2-hydroxy-2-(3-methoxyphenyl)butanoyl]piperidin-4-yl}methyl)piperidin-1-yl]pyridine-3-carboxamide]
17 | 56 | 10 | 10 | NO IP | – | – | – | CC(C)Oc1cccc(C(O)(C(=O)N2CCC(CC3CCN(c4ccc(C(=O)N(C)C)c(Cl)n4)CC3)CC2)C(F)(F)F)c1 (centres unmarked) [Example 7-76, 2-chloro-N,N-dimethyl-6-{4-[(1-{3,3,3-trifluoro-2-hydroxy-2-[3-(1-methylethoxy)phenyl]propanoyl}piperidin-4-yl)methyl]piperidin-1-yl}pyridine-3-carboxamide]
18 | 53 | 8 | 13 | NO IP | – | – | – | CN(C)C(=O)c1ccc(N2CCC(CC3CCN(C(=O)C(O)(c4cc(Cl)cc(Cl)c4)C(F)(F)F)CC3)CC2)nc1Cl (centres unmarked) [Example 7-83, 2-chloro-6-[4-({1-[2-(3,5-dichlorophenyl)-3,3,3-trifluoro-2-hydroxypropanoyl]piperidin-4-yl}methyl)piperidin-1-yl]-N,N-dimethylpyridine-3-carboxamide]
